Results on 21 molecules are retold here after US20240150339A1, “Compounds and Their Use as PDE4 Activators” (Mironid Limited, priority 2021, published 2024).

One assay deals with T1, PDE4D5 (Homo sapiens, UniProt Q08499).
T1 construct: Using Full-Length Human PDE4 Isoforms: Long Forms PDE4D5, PDE4C3, PDE4B1 and Short Form PDE4B2; made in house; cytosol fraction of the cell lysate, not purified
T1 sequence (Q08499 1-745 isoform Q08499-6): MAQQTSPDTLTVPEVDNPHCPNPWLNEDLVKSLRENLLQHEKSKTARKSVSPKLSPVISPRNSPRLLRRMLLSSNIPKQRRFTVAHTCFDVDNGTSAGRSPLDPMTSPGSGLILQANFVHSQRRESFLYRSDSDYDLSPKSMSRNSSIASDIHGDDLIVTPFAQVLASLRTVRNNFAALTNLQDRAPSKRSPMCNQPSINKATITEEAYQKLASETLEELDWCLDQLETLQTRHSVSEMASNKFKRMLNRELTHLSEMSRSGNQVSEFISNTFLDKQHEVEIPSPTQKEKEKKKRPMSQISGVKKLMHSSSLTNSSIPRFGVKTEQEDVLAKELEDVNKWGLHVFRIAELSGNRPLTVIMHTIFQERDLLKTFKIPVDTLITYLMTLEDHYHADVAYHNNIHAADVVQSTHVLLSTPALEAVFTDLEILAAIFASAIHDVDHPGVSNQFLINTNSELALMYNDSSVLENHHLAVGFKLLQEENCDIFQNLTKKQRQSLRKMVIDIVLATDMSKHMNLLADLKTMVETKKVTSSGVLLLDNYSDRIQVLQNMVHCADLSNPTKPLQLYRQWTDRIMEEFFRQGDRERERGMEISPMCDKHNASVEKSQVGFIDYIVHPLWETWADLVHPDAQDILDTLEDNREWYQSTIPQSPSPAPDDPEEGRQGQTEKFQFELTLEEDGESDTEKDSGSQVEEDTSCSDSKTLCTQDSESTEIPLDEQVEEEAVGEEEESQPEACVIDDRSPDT
The experiment in a line: PDE assay, activation of full-length human PDE4D5 long form ([3H]cAMP radio-assay). Format: biochemical. The settings on record: 30 μM test compound; mean % increase in counts over basal activity. The text has this: Experiment 1: Measurement of Modulation of Enzyme Activity by PDE4 Long Form Activators of the Present Invention Using Full-Length Human PDE4 Isoforms: Long Forms PDE4D5, PDE4C3, PDE4B1 and Short Form PDE4B2
(Marchmont, R. J. and Houslay, M. D. Biochem. J. 187: 381-92, 1980)
For transient transfection of exogenous PDE4 long isoforms, HEK 293 cells were transfected with pcDNA3.1 or pDEST™ PDE4 expression vectors using Lipofectamine LTX/Plus reagent (Invitrogen) as outlined by the manufacturer.
Where stable cell lines were generated the clonal isolates were expanded to obtain cell lines that stably expressed the full-length human PDE4 long isoforms and the full length human PDE4B2 short isoform. These were called the HEK-PDE4D5, HEK-PDE4B1 and HEK-PDE4B2 cell lines, respectively.
HEK-PDE4D5 cells were seeded out in 100 mm plates and incubated at 37° C. in an atmosphere of 5% CO2, 95% air. Cell lysates were prepared using KHEM buffer [50 mM KCl, 10 mM EGTA, 50 mM HEPES (pH 7.2), 1.92 mM MgCl2].
To prepare the cell lysates, the 100 mm plates containing the cells were placed on ice and washed with ice-cold PBS (phosphate buffered saline, pH 7.4). KHEM buffer (500 μl) was added to the cells. Cells were then scraped off the plate and triturated using a needle (BD Microlance™ 0.8, 40 mm). The lysed cells were then centrifuged at 2000 rpm for 10 minutes to remove cell debris and the supernatant (cell lysate containing recombinant PDE4D5) was transferred to a fresh tube and kept on ice.
The cell lysate containing recombinant PDE4D5 was transferred into a centrifuge tube and placed into an ultracentrifuge (BECKMAN COULTER) and spun at high speed (100,000 g) for 30 minutes at 4° C. The cytosol fraction was then collected and its protein amount determined using a BCA protein assay.
PDE assays were performed in thin walled V-bottomed 96-well plates. The assays were performed at a final concentration of 10 mM Tris/5 mM MgCl2 μlus PDE4D5 cell lysate cytosol fraction, containing over-expressed PDE4D5, with and without test compound. The lysate/compound mix were incubated together for 15 min at room temperature on an orbital shaker prior to addition of [^3H] cAMP (final concentration 1 μM [^3H] cAMP; Perkin Elmer) to a final volume of 50 μl per reaction. The reactions were then incubated for 10 minutes at 30° C., terminated by heating for 2 min at 95° C. and allowed to cool. Snake venom (12.5 μl of 1 mg/ml; Crotalus atrox, Sigma) was then added and the plates were agitated and incubated for a further 15 minutes at 30° C. Dowex ion exchange resin (Sigma, chloride form, 200-400 mesh; 200 μl; prepared as a 1:1 Dowex: water stock, thoroughly re-suspended and diluted 2:1 with ethanol) was then added to each well and the plates incubated for 15 min at room temperature on an orbital shaker ensuring sufficient agitation for resin suspension (550 RPM). The reaction mixture was then transferred to a 96 well filter plate (Millipore; […] pore size) and filtered into a receiving 96-well plate to remove the dowex suspension. 30 μL of the filtered solution was then transferred to the wells of an Opti-plate (Perkin Elmer) 96 well assay plate and 120 μl of Microscint 40 scintillation fluid was added. The plate was then placed on an orbital shaker for 10 min at high speed (900 RPM) to mix the sample with scintillation fluid prior to quantitation using a plate based scintillation counter (Top-Count).
The % increase in counts in the presence of test compound at a particular concentration indicates the % increase in enzyme activity at that concentration.
Consider `O=C(N[C@H]1CCCc2ccccc21)c1ccc2nc(-c3cccnc3)sc2c1` [Example 8, (S)-2-(pyridin-3-yl)-N-(1,2,3,4-tetrahydronaphthalen-1-yl)benzo[d]thiazole-6-carboxamide], for which the activation at 30 µM came out at 82%.

`Cc1ccc(-c2nc3ccc(C(=O)NCc4ccccc4)cc3s2)cn1` [Example 10, N-benzyl-2-(6-methylpyridin-3-yl)benzo[d]thiazole-6-carboxamide] registered an activation at 30 µM of 78%.

Take `Cc1ccc(-c2nc3ccc(C(=O)NCc4ccc(Cl)cc4)cc3s2)cn1` [Example 11, N-(4-chlorobenzyl)-2-(6-methylpyridin-3-yl)benzo[d]thiazole-6-carboxamide]: the activation at 30 µM was 104%.

Regarding `Cc1ccc(-c2nc3ccc(C(=O)NCc4ccc(F)cc4)cc3s2)cn1` [Example 12, N-(4-fluorobenzyl)-2-(6-methylpyridin-3-yl)benzo[d]thiazole-6-carboxamide], the activation at 30 µM was found to be 58%.

In turn, `COc1ccc(CNC(=O)c2ccc3nc(-c4ccc(C)nc4)sc3c2)cc1` [Example 13, N-(4-methoxybenzyl)-2-(6-methylpyridin-3-yl)benzo[d]thiazole-6-carboxamide] registered an activation at 30 µM of 93%.

`Cc1ccc(-c2nc3ccc(C(=O)NCc4cccc(Cl)c4)cc3s2)cn1` [Example 14, N-(3-chlorobenzyl)-2-(6-methylpyridin-3-yl)benzo[d]thiazole-6-carboxamide] had an activation at 30 µM of 120%.

`Cc1ccc(-c2nc3ccc(C(=O)NCc4cccc(F)c4)cc3s2)cn1` [Example 15, N-(3-fluorobenzyl)-2-(6-methylpyridin-3-yl)benzo[d]thiazole-6-carboxamide] showed an activation at 30 µM of 99%.

`COc1cccc(CNC(=O)c2ccc3nc(-c4ccc(C)nc4)sc3c2)c1` [Example 16, N-(3-methoxybenzyl)-2-(6-methylpyridin-3-yl)benzo[d]thiazole-6-carboxamide] had an activation at 30 µM of 64%.

`Cc1ccc(-c2nc3ccc(C(=O)N[C@H]4CCc5ccccc54)cc3s2)cn1` [Example 17, (S)-N-(2,3-dihydro-1H-inden-1-yl)-2-(6-methylpyridin-3-yl)benzo[d]thiazole-6-carboxamide] gave an activation at 30 µM of 171%.

Take `Cc1ccc(-c2nc3ccc(C(=O)N[C@@H]4CCc5ccccc54)cc3s2)cn1` [Example 18, (R)-N-(2,3-dihydro-1H-inden-1-yl)-2-(6-methylpyridin-3-yl)benzo[d]thiazole-6-carboxamide]: the activation at 30 µM was 142%.

`Cc1ccc(-c2nc3ccc(C(=O)N[C@H]4c5ccccc5C[C@H]4O)cc3s2)cn1` [Example 19, N-((1S,2R)-2-hydroxy-2,3-dihydro-1H-inden-1-yl)-2-(6-methylpyridin-3-yl)benzo[d]thiazole-6-carboxamide] displayed an activation at 30 µM of 73%.

Turning to `Cc1ccc(-c2nc3ccc(C(=O)N[C@@H]4c5ccccc5C[C@@H]4O)cc3s2)cn1` [Example 20, N-((1R,2S)-2-hydroxy-2,3-dihydro-1H-inden-1-yl)-2-(6-methylpyridin-3-yl)benzo[d]thiazole-6-carboxamide], the activation at 30 µM came out at 105%.

`Cc1ccc(-c2nc3ccc(C(=O)N[C@@H]4c5ccccc5C[C@H]4O)cc3s2)cn1` [Example 21, N-((1R,2R)-2-hydroxy-2,3-dihydro-1H-inden-1-yl)-2-(6-methylpyridin-3-yl)benzo[d]thiazole-6-carboxamide] had an activation at 30 µM of 193%.

`Cc1ccc(-c2nc3ccc(C(=O)NC4CCCC4)cc3s2)cn1` [Example 22, N-cyclopentyl-2-(6-methylpyridin-3-yl)benzo[d]thiazole-6-carboxamide] came in with an activation at 30 µM of 39%.

A further assay concerns m-IMCD3 cells. The experiment in a line: Inhibition of PGE2-stimulated in vitro cyst formation in 3D culture of m-IMCD3 cells. Type of assay: cell-based, mouse. The settings on record: Mus musculus, mIMCD3, 144 h; 10 μM test compound; mean cyst area (%) compared to 100% for (DMSO + PGE2) and 0% for DMSO control; 100 nM PGE2; 6 days; read-out: % Cyst area after incubation with 10 μM test compound. As to the method:
HEK 293 and MDCK cells (Public Health England, Cell Culture Collections) were maintained in Dulbecco's Modified Eagle's Medium (DMEM) supplemented with 10% (v/v) fetal bovine serum (FBS) (Seralab), 2 mM L-glutamine and 100 U/ml penicillin streptomycin cocktail (ThermoFisher); termed complete media. Clonal HEK 293 cell lines were maintained in complete media supplemented with 0.6 mg/mL G418 (Enzo Life Sciences). Mouse inner medullary collecting duct (m-IMCD3) cells [American Type Culture Collection (ATCC)] were maintained in media consisting of DMEM/Hams F-12 50/50 Mix (DMEM F12; Corning) supplemented with penicillin streptomycin cocktail (100 U/ml) and FBS (10% v/v) (DMEM F12-10% FBS).
The mouse Inner Medullary Collecting Duct cell line (m-IMCD3) spontaneously forms cystic spheroids in 3D culture with a Type 1 collagen/Matrigel extracellular matrix. This process can be stimulated with agents which raise intracellular cAMP, such as PGE2, and is used as an in vitro model for the formation of cystic structures in the kidneys of patients with ADPKD.
Rat Collagen I (Fisher Scientific) is prepared on ice by neutralising with 1M NaOH and diluting with a 2×volume of DMEM/F12+10% FBS for coating plate (coating mix) and a 2.2 volume of DMEM/F12+10% FBS for cell plating (plating mix). This is mixed 1:1.1 with ice cold Matrigel (Corning) for coating plates (coating mix), and 1:0.95 with Matrigel for cell plating (plating mix).
The assay is conducted in the wells of a 96-well plate culture dish using a total volume of 130 μl of collagen/Matrigel/DMEM F12-10% FBS suspension in growth media for each matrix plug per individual well. Initially, 30 μl of collagen/Matrigel/DMEM F12-10% FBS (coating mix) is added into the well of a 96 well plate and the collagen is set to a gel by incubating at 37° C. for at least 15 minutes. A second layer of 100 μl collagen/Matrigel suspension (plating mix) containing m-IMCD3 cells (2.75×10^6 m-IMCD3 cells per 96-well plate) is layered over the coating mix and the collagen/Matrigel/cell mix again set to a gel by incubating at 37° C. Cell cultures are maintained at 37° C. in an atmosphere of 5% CO2, 95% air.
Between 18 and 24h after plating, test compound(s) as DMSO stock solutions [0.1% (v/v) final DMSO concentration] and PGE2 (100 nM final concentration) in DMEM F12-10% FBS are added in quadruplicate wells per condition. Media, togetherwith the test compound and PGE2 are replenished after 2 or 3 days. After 6 days of culture z stack images of the wells are captured using the Nikon Eclipse Ti2-E microscope. Nikon General Analysis software is used to measure the following parameters in each well: the mean cyst area, the number of cysts, and the total cyst area.
PDE4 long form activators inhibited in vitro cyst formation in m-IMCD3 cells. Data are shown in FIG. 2 and Table 5 as mean cyst area (%), compared to 100% for (DMSO+PGE2) and 0% for DMSO control.
Turning to `CN(C(=O)c1ccc2nc(C3CCNCC3)sc2c1)C1CCCC1` [Example 271, N-cyclopentyl-N-methyl-2-(piperidin-4-yl)benzo[d]thiazole-6-carboxamide], the activity at 10 µM is 27%.

On to `CN1CCC(c2nc3ccc(C(=O)N[C@@H]4CCC[C@H]4O)cc3s2)CC1` [Example 274, N-[(1R,2R)-2-hydroxycyclopentyl]-2-(1-methylpiperidin-4-yl)benzo[d]thiazole-6-carboxamide], for which the activity at 10 µM worked out at 16%.

As to `CCN1CCC(c2nc3ccc(C(=O)NCc4ccncc4)cc3s2)CC1` [Example 275, 2-(1-ethylpiperidin-4-yl)-N-(pyridin-4-ylmethyl)benzo[d]thiazole-6-carboxamide], the activity at 10 µM was -2%.

For `CC(C)OCCNC(=O)c1ccc2nc(N3C4CCC3CNC4)sc2c1` [Example 278, 2-(3,8-diazabicyclo[3.2.1]octan-8-yl)-N-(2-isopropoxyethyl)benzo[d]thiazole-6-carboxamide], the activity at 10 µM was determined as 18%.

For the molecule `CCN1CC(c2nc3ccc(C(=O)NC4CCCC4)cc3s2)C1` [Example 281, N-cyclopentyl-2-(1-ethylazetidin-3-yl)benzo[d]thiazole-6-carboxamide], the activity at 10 µM came to 10%.

For `O=C(NC1CCCC1)c1ccc2sc(C3CCNCC3)nc2c1` [Example 283, N-cyclopentyl-2-(piperidin-4-yl)benzo[d]thiazole-5-carboxamide], the activity at 10 µM is 14%.

In the case of `CN1CCC(c2nc3ccc(S(=O)(=O)NC4CCCC4)cc3s2)CC1` [Example 288, N-cyclopentyl-2-(1-methylpiperidin-4-yl)benzo[d]thiazole-6-sulfonamide], the activity at 10 µM was 11%.
